Data reported in patent US12662451B2, “Chemical compounds and uses thereof” (GLAXOSMITHKLINE INTELLECTUAL PROPERTY (NO.4) LIMITED, priority 2023, dated 2026).
Structures can show the parent of a compound that is named as a salt. Where two headings read alike, the source gives them in different places.

Columns and labels:
[1] = molecular target: T1, recombinant full-length WRN protein (1-1432) (Homo sapiens, UniProt Q14191); test: WRN unwinding activity, fluorogenic 384-well assay (Example A); type: biochemical; details: WRN unwinding activity, 4 hr; Table 2; read-out: 4 hr UNW pIC50 (converted)
T1 construct: recombinant full-length WRN protein (1-1432)
In short: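 200 pM enzyme (2× stock) preincubated with compound 4 h at ambient temperature, then 200 μM ATP and 12 nM quenched TAMRA-labelled dsDNA (2× stocks) added for 60 min; EDTA-quenched. Buffer 25 mM Tris pH 8.0, 5 mM NaCl, 2 mM MgCl2. Fluorescence at 525/598 nm; pIC50 from four-parameter fit.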

[2] = tested on: SW48 human colorectal cancer cells (MSI-H cancer cells); test: SW48 cell viability, CellTiter-Glo, 120 hours (Example B); details: for CC50: Homo sapiens
Method: SW48 human colorectal cancer cells (MSI-H cancer cells) were obtained from the American Type Culture Collection and maintained in growth medium composed of RPMI-1640 supplemented with 10% fetal bovine serum. Cells were maintained in a humidified 5% CO2 incubator at 37° C. Cell dissociation was conducted using TrypLE Select to detach cells from culture flasks. Following dissociation, cells were centrifuged briefly and resuspended in assay medium RPMI-1640+10% fetal bovine serum. Black 384-well assay plates were prepared from source plates of DMSO and compounds dissolved in DMSO prior to cell dispensation. These source plates were prepared in eleven point, 3-fold serial dilutions from 10 mM stocks stored at 4° C. Compounds and DMSO controls were dispensed into assay plates at 150 nanoliters per well from source plates using Labcyte Echo 555 or Echo 655T dispensers with Column 6 and Column 18 containing DMSO only. Cells were then seeded into prepared assay plates in 50 microliters assay medium at 250 cells per well into Columns 1 thru 17 and Columns 19-24. Assay medium without cells was added to column 18 to serve as a surrogate for 100% cell cytotoxicity. Following incubation for 120 hours in a humidified 5% CO2 incubator at 37° C., cellular ATP concentration of each well was measured and used as a surrogate of cell viability. This was performed by adding 50 microliters of CellTiter-Glo reagent to each well followed by a 10-minute incubation at room temperature. Luminescence was measured on a Synergy Neo or Synergy Neo2 multimode plate reader. Compound cytotoxic response (% C) was normalized to the robust means of column 6 (Control 1, 0% Cytotoxicity) and column 18 (Control 2, 100% Cytotoxicity) and normalized % cytotoxicity (% C) calculated. % C=100−100*((Compound−Control 2)/(Control1−Control2)). These normalized data were then used to determine a 50% cytotoxic response (CC50) using 4-parameter logistic curve model 201 in Activity Base XE:
[formula] • where A=minimum asymptote (% cytotoxicity), B=maximum asymptote (% cytotoxicity), C=Log CC50 (pCC50), D=Hill slope, and x=[inhibitor], (M).

[3] = tested on: SW48 human colorectal cancer cells; test: Calculated free drug potency in SW48 cell assay, corrected with media free fraction (Example C); type: cell-based; details: for CC50: Homo sapiens, SW48, SW48 pCC50 corrected with measured free fraction in cell assay media
Method: (§1) It was observed that the compounds of the present disclosure are bound to cell assay media to various degrees, which would affect the cellular potency analysis in Example B. To measure free drug potency, concentrations used in the cell assays were corrected with the measured free fraction determined in the cell assay media. Compounds were incubated in a rapid equilibrium dialysis (RED) at a nominal concentration of 1 μM, using a dialysis buffer of phosphate-buffered saline (PBS, 100 mM sodium phosphate+150 mM sodium chloride, pH 7.4). The test compound was spiked into the medium. Aliquots were added to the donor wells of a RED plate in triplicate, and blank PBS was added to each receiver well, at volumes recommended by the manufacturer. Plates were incubated with shaking at 200 rpm for 4 hours at 37° C. The resultant samples were analysed by LC-MS/MS using a specific and sensitive method. Results were reported as analyte:internal standard peak area ratios (PARs), and the percent unbound was calculated with the following equation:
(§2) [formula] where Cfinal=PAR in the T=240 minute sample; Cinitial=PAR in the T=0 minute sample. Cell culture media unbound percentage and calculated free drug potency of selected compounds along with their measured potency from Example B are shown in Table 3.

[4] = Cell culture media unbound percentage and stability by rapid equilibrium dialysis (Example C); type: in vitro ADME; details: bovine, cell assay medium (RPMI-1640 with 10% fetal bovine serum), pH 7.4, rapid equilibrium dialysis, 4 hours at 37° C., read-out: Cell Culture Media Binding (% unbound)
Method: as §1
[formula] where D=the matrix dilution factor (D=1 for media); Apparent Fu=Crec/Cdon; Crec=PAR in receiver samples; Cdon=PAR in donor samples. Percent stability was calculated by:
as §2

[5] = SW48, 120 h, read-out: SW48 pCC50, SW48 cell viability, 120 hours incubation (converted), Table 2
[6] = SW48, read-out: SW48 pCC50, measured potency from Example B, as repeated in Table 3 (converted)

T1 sequence (Q14191 whole entry): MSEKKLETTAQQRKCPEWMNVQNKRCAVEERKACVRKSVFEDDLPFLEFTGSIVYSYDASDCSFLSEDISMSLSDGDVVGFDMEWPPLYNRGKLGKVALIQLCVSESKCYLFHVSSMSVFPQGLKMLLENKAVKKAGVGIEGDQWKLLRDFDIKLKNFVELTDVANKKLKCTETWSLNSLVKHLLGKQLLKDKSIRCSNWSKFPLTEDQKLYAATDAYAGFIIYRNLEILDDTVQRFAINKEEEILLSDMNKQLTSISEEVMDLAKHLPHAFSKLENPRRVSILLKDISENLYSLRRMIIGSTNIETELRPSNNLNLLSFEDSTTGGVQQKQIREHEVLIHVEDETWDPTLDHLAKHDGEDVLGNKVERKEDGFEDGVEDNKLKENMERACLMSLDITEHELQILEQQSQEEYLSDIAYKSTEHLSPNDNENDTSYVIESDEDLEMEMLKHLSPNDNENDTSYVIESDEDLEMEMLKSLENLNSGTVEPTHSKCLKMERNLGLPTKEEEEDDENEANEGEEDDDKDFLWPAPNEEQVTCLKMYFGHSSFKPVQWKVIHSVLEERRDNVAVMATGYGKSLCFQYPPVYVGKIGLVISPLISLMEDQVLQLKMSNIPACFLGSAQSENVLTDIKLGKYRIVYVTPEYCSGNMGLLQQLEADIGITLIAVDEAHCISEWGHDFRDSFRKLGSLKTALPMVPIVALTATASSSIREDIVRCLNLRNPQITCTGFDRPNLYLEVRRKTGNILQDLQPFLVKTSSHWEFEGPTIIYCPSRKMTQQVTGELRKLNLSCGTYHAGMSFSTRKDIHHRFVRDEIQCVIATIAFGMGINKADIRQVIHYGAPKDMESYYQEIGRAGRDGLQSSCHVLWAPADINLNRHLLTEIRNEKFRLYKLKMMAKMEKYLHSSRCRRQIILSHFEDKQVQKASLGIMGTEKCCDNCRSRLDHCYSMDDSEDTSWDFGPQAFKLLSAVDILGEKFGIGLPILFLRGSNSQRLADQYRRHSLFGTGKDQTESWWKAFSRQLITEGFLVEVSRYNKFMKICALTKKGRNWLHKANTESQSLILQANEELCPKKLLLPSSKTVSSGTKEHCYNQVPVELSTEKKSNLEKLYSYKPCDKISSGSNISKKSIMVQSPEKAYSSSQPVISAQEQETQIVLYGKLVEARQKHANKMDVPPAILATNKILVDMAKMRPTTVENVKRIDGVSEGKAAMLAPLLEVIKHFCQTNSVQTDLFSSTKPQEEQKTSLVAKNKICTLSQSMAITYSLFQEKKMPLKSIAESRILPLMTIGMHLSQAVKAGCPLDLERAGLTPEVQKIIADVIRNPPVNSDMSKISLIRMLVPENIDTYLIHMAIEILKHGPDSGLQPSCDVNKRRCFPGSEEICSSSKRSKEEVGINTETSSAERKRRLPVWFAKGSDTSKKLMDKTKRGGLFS

IC50 [1] [nM] | fraction unbound at 4 h, 1 µM [4] | SMILES | CC50 [2, 5] [nM] | CC50 [2, 6] [nM] | CC50 [3] [nM] | SW48 pCC50 ([2]; SW48 cell viability, 120 hours incubation, Table 2) | SW48 pCC50 ([2]; measured potency from Example B, as repeated in Table 3) | Free Drug SW48 pCC50 ([3]; SW48 pCC50 corrected with measured free fraction in cell assay media)
1.58 | 0.113 | Cc1nc2cc(S(=O)(=O)N(C)c3ccc([C@H]4C[C@@H](N5CCCC(F)(F)C5)C[C@@H](C(=O)Nc5ccc(C(F)(F)F)cc5F)[C@@H]4C(=O)O)cc3)ccc2n1C (relative stereo) [Example 353, rel-(1R,2R,4R,6S)-4-(3,3-difluoropiperidin-1-yl)-2-((2-fluoro-4-(trifluoromethyl)phenyl)carbamoyl)-6-(4-((N,1,2-trimethyl-1H-benzo[d]imidazole)-5-sulfonamido)phenyl)cyclohexane-1-carboxylic acid] | 39.8 | 39.8 | 4.47 |  |  | 
3.16 | 0.216 | Cc1nc2cc(S(=O)(=O)N(C)c3ccc([C@H]4CC(F)(F)C[C@@H](C(=O)Nc5ccc(C(F)(F)F)cc5F)[C@@H]4C(=O)O)cc3)ccc2n1C (relative stereo) [Example 363, rel-(1R,2R,6S)-4,4-difluoro-2-((2-fluoro-4-(trifluoromethyl)phenyl)carbamoyl)-6-(4-((N,1,2-trimethyl-1H-benzo[d]imidazole)-5-sulfonamido)phenyl)cyclohexane-1-carboxylic acid] | 79.4 | 79.4 | 17 |  |  | 
1.58 | 0.0875 | Cc1nc2cc(S(=O)(=O)N(C)c3ccc([C@H]4C[C@@H](CS(C)(=O)=O)C[C@@H](C(=O)Nc5ccc(C(F)(F)F)cc5F)[C@@H]4C(=O)O)cc3)ccc2n1C (relative stereo) [Example 395, rel-(1R,2R,4R,6S)-2-((2-fluoro-4-(trifluoromethyl)phenyl)carbamoyl)-4-((methylsulfonyl)methyl)-6-(4-((N,1,2-trimethyl-1H-benzo[d]imidazole)-5-sulfonamido)phenyl)cyclohexane-1-carboxylic acid] | 1000 | 1000 | 87.1 |  |  | 
1.58 | 0.0527 | Cc1nc2cc(S(=O)(=O)N(C)c3ccc([C@@H]4C[C@H](N5CC6(F)CC5C6)C[C@H](C(=O)Nc5ccc(C(F)(F)F)cc5F)[C@H]4C(=O)O)cc3)ccc2n1C (relative stereo) [Example 397, rel-(1R,2R,4R,6S)-2-((2-fluoro-4-(trifluoromethyl)phenyl)carbamoyl)-4-(4-fluoro-2-azabicyclo[2.1.1]hexan-2-yl)-6-(4-((N,1,2-trimethyl-1H-benzo[d]imidazole)-5-sulfonamido)phenyl)cyclohexane-1-carboxylic acid] | 316 | 316 | 16.6 |  |  | 
20 | 0.049 | Cc1nc2cc(S(=O)(=O)N(C)c3ccc([C@H]4C[C@H](N5CC6(F)CC5C6)C[C@@H](C(=O)Nc5ccc(C(F)(F)F)cc5F)[C@@H]4C(=O)O)cc3)ccc2n1C (relative stereo) [Example 400, rel-(1R,2R,4S,6S)-2-((2-fluoro-4-(trifluoromethyl)phenyl)carbamoyl)-4-(4-fluoro-2-azabicyclo[2.1.1]hexan-2-yl)-6-(4-((N,1,2-trimethyl-1H-benzo[d]imidazole)-5-sulfonamido)phenyl)cyclohexane-1-carboxylic acid] | 7940 | 7940 | 389 |  |  | 
2.51 | 0.242 | Cc1nc2cc(S(=O)(=O)N(C)c3ccc([C@H]4C[C@@H]5OCC[C@@H]5[C@@H](C(=O)Nc5ccc(C(F)(F)F)cc5F)[C@@H]4C(=O)O)cc3)ccc2n1C (single isomer, unassigned) [Example 157] |  |  |  | 6.9 | 6.9 | 7.50

The remaining lines, values behind:

SMILES | IC50 [1] [nM] | fraction unbound at 4 h, 1 µM [4] | CC50 [2, 5] [nM] | CC50 [2, 6] [nM] | CC50 [3] [nM] | SW48 pCC50 ([2]; SW48 cell viability, 120 hours incubation, Table 2) | SW48 pCC50 ([2]; measured potency from Example B, as repeated in Table 3) | Free Drug SW48 pCC50 ([3]; SW48 pCC50 corrected with measured free fraction in cell assay media)
COC12CC(CO[C@@H]3C[C@H](c4ccc(N(C)S(=O)(=O)c5ccc6c(c5)nc(C)n6C)cc4)[C@@H](C(=O)O)[C@H](C(=O)Nc4ccc(C(F)(F)F)cc4F)C3)(C1)C2 (relative stereo) [Example 332, rel-(1R,2R,4R,6S)-2-((2-fluoro-4-(trifluoromethyl)phenyl)carbamoyl)-4-((3-methoxybicyclo[1.1.1]pentan-1-yl)methoxy)-6-(4-((N,1,2-trimethyl-1H-benzo[d]imidazole)-5-sulfonamido)phenyl)cyclohexane-1-carboxylic acid] | 3.98 | 0.122 | 100 | 100 | 12.3 |  |  | 
CCO[C@@H]1C[C@H](c2ccc(N(C)S(=O)(=O)c3ccc4c(c3)nc(Cl)n4C)cc2)[C@@H](C(=O)O)[C@H](C(=O)Nc2ccc(C(F)(F)F)cc2F)C1 (relative stereo) [Example 361, rel-(1R,2S,4R,6R)-2-(4-((2-chloro-N,1-dimethyl-1H-benzo[d]imidazole)-5-sulfonamido)phenyl)-4-ethoxy-6-((2-fluoro-4-(trifluoromethyl)phenyl)carbamoyl)cyclohexane-1-carboxylic acid] | 1.58 | 0.0632 | 501 | 501 | 31.6 |  |  | 
CN(c1ccc([C@H]2CCC[C@@H](C(=O)Nc3ccc(C(F)(F)F)cc3F)[C@@H]2C(=O)O)cc1)S(=O)(=O)c1ccc2c(c1)ncn2C (single isomer, unassigned) [Example 88] | 2.51 | 0.0297 | 398 | 398 | 11.7 |  |  | 
CC(=O)N1CCc2cc(S(=O)(=O)N(C)c3ccc([C@H]4CCC[C@@H](C(=O)Nc5ccc(C(F)(F)F)cc5F)[C@@H]4C(=O)O)cc3)ccc21 (single isomer, unassigned) [Example 90] | 3.98 | 0.0553 | 1260 | 1260 | 69.2 |  |  | 
Cc1nc2cc(S(=O)(=O)N(C)c3ccc([C@@H]4CCC[C@H](C(=O)Nc5c(F)cc(C(C)C)cc5F)[C@H]4C(=O)O)cc3)ccc2n1C (single isomer, unassigned) [Example 171] | 3.16 | 0.0634 | 794 | 794 | 50.1 |  |  | 
CCO[C@@H]1C[C@H](c2ccc(N(C)S(=O)(=O)c3ccc4c(c3)nc(C)n4C)cc2)[C@@H](C(=O)O)[C@H](C(=O)Nc2ccc(C(F)(F)F)cn2)C1 (single isomer, unassigned) [Example 199] | 2.51 | 0.16 | 501 | 501 | 79.4 |  |  | 
Cc1nc2cc(S(=O)(=O)N(C)c3ccc([C@@H]4CCC[C@H](COc5ccc(C(F)(F)F)cc5)[C@H]4C(=O)O)cc3)cc([C@@H]3CCCN(C)C3)c2n1C (single isomer, unassigned) [Example 211, formic acid salt] | 2 | 0.0208 | 3160 | 3160 | 66.1 |  |  | 
Cc1nc2cc(S(=O)(=O)N(C)c3ccc([C@@H]4CCC[C@H](COc5ccc(C(F)(F)F)cc5)[C@H]4C(=O)O)cc3)cc([C@H]3CCCN(C)C3)c2n1C (single isomer, unassigned) [Example 212] | 1.58 | 0.0205 | 2000 | 2000 | 40.7 |  |  | 
CCO[C@H]1C[C@@H](COc2ccc(C(F)(F)F)cc2)[C@H](C(=O)O)[C@@H](c2ccc(N(C)S(=O)(=O)c3ccc4c(c3)nc(C)n4C)cc2)C1 (single isomer, unassigned) [Example 221] | 3.98 | 0.0411 | 2000 | 2000 | 81.3 |  |  | 
Cc1nc2cc(S(=O)(=O)Nc3ccc([C@@H]4CCC[C@H](C(=O)Nc5ccc(C(F)(F)F)cc5F)[C@H]4C(=O)O)cc3)ccc2n1C (single isomer, unassigned) [Example 224] | 1.26 | 0.0355 | 501 | 501 | 17.8 |  |  | 
Cc1nnc(-c2cc([C@@H]3CCC[C@H](C(=O)Nc4ccc(C(F)(F)F)cc4F)[C@H]3C(=O)O)ccc2C(F)(F)F)o1 (single isomer, unassigned) [Example 245] | 7.94 | 0.0971 | 7940 | 7940 | 776 |  |  | 
